In patent US20230287044A1, “NOVEL ANTIBACTERIAL PEPTIDE AND USE THEREOF” (priority 2020, published 2023):
Values after ≈ are worked out from the molar mass of the structure shown. Like-named read-outs stand apart in the source and are kept apart here. Blank lines part the entries; values can stand above or below the molecule they belong to. Square brackets hold non-standard residues; d marks the D form. Peptide text beside a SMILES is read from it.

Columns and labels:
[1] = Solubility of antibacterial peptides in solution; format: physicochemical
[2] = system: MRAB (A. baumannii) ATCC BAA 1605; format: cell-based, Acinetobacter baumannii; conditions: ATCC BAA 1605, 18 h
Method in brief: (§1)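 Mid-log cultures grown in CAMHB and diluted to 1× 10^6 cfu/ml in PBS were mixed with an equal volume of peptide in CAMHB (80 µM to 0.63 µM twofold dilutions). MIC taken as the mean of three independent experiments.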

[3] = system: MRSA (S. aureus) KCCM 40510; format: cell-based, Staphylococcus aureus; conditions: KCCM 40510, 18 h
Method in brief: as §1

[4] = system: VRE (E. faecalis) ATCC 51575; format: cell-based, Enterococcus faecalis; conditions: ATCC 51575, 18 h
Method in brief: as §1

[5] = system: MRPA (P. aeruginosa) CCARM 2180; format: cell-based, Pseudomonas aeruginosa; conditions: CCARM 2180, 18 h
Method in brief: as §1

[6] = system: 30 species of Acinetobacter baumannii (A. baumannii); format: cell-based
Experimental: In addition, the results obtained by measuring the minimum inhibitory concentrations of KSH29, KSH42 and KSH43 against 30 species of Acinetobacter baumannii (A. baumannii) are shown in Table 4 below.
The minimum inhibitory concentrations (MIC) against the 30 species of Acinetobacter baumannii were measured in the following manner.
The strain 1605 was purchased from ATCC (American Type Culture Collection, USA). In addition, the strain 40203 was purchased from the Korean Culture Center of Microorganisms.
The COL^R refers to resistance to colistin, the TGC^R refers to resistance to tigecycline, and the TGC^I refers to tigecycline intermediate strains.

[7] = against 30 species of Acinetobacter baumannii

Molecule: CC(C)[C@@H](NC(=O)[C@H](N)Cc1c[nH]c2ccccc12)C(=O)N[C@@H](C(=O)N[C@H](Cc1c[nH]c2ccccc12)C(=O)N[C@@H](C(=O)N[C@@H](C(=O)N[C@H](Cc1c[nH]c2ccccc12)C(=O)N[C@H](CCCNC(=N)N)C(=O)N[C@H](CCCNC(=N)N)C(=O)N[C@H](CCCNC(=N)N)C(N)=O)C(C)C)C(C)C)C(C)C [KSH42, wvvwvvwrrr] (H-[dW][dV][dV][dW][dV][dV][dW][dR][dR][dR]-NH2; N-terminus assumed)
solubility at 12 h ([1]; aqueous buffer): ≥ 100 µM | solubility at 12 h ([1]; plasma or biological fluid): 100 µM (≈ 144 µg/mL) | solubility at 12 h ([1]; water): > 2000 µM | MIC50 [6, 7]: 1.25 µM (≈ 1.8 µg/mL) | MIC90 [6, 7]: 1.25 µM (≈ 1.8 µg/mL)

Molecule: CN[C@H](CC(C)C)C(=O)N[C@H]1C(=O)N[C@@H](CC(N)=O)C(=O)N[C@H]2C(=O)N[C@H]3C(=O)N[C@H](C(=O)N[C@H](C(=O)O)c4cc(O)cc(O)c4-c4cc3ccc4O)[C@H](O)c3ccc(c(Cl)c3)Oc3cc2cc(c3O[C@@H]2O[C@H](CO)[C@@H](O)[C@H](O)[C@H]2O[C@H]2C[C@](C)(N)[C@H](O)[C@H](C)O2)Oc2ccc(cc2Cl)[C@H]1O [Vancomycin, reference compound]
solubility at 12 h ([1]; aqueous buffer, PBS, peptide 25 to 200 µM, 12 hours at room temperature, read-out: Solubility in solution PBS): > 200 µM | solubility at 12 h ([1]; plasma or biological fluid, CAMHB, peptide 25 to 200 µM, 12 hours at room temperature, read-out: Solubility in solution CAMHB): > 200 µM | solubility at 12 h ([1]; water, H2O, observed for 12 hours at room temperature, read-out: Solubility in solution H2O): > 2000 µM

Molecule: Colistin [reference compound]
solubility at 12 h ([1]; read-out: Solubility in solution CAMHB): >200 µM | solubility at 12 h ([1]; read-out: Solubility in solution H2O): >2000 µM | solubility at 12 h ([1]; read-out: Solubility in solution PBS): >200 µM | MIC ([6]; A. baumannii strain 1): 0.63 µM | MIC ([6]; A. baumannii strain 3 (COL^R)): >40 µM | MIC ([6]; A. baumannii strain 6 (TGC^I)): 2.5 µM | MIC ([6]; A. baumannii strain 10): 2.5 µM | MIC ([6]; A. baumannii strain 14): 1.25 µM | MIC ([6]; A. baumannii strain 15): 0.63 µM | MIC ([6]; A. baumannii strain 16): <0.31 µM | MIC ([6]; A. baumannii strain 19): <0.31 µM | MIC ([6]; A. baumannii strain 22 (TGC^I)): 1.25 µM | MIC ([6]; A. baumannii strain 39): <0.31 µM | MIC ([6]; A. baumannii strain 44): 1.25 µM | MIC ([6]; A. baumannii strain 66): 1.25 µM | MIC ([6]; A. baumannii strain 68): 0.63 µM | MIC ([6]; A. baumannii strain 69): 1.25 µM | MIC ([6]; A. baumannii strain 71): 1.25 µM | MIC ([6]; A. baumannii strain 76): <0.31 µM | MIC ([6]; A. baumannii strain 80): 0.63 µM | MIC ([6]; A. baumannii strain 82): 0.63 µM | MIC ([6]; A. baumannii strain 86): 0.63 µM | MIC ([6]; A. baumannii strain 89): 2.5 µM | MIC ([6]; A. baumannii strain 102 (TGC^I)): 0.63 µM | MIC ([6]; A. baumannii strain 127): 0.63 µM | MIC ([6]; A. baumannii strain 141 (TGC^R)): <0.31 µM | MIC ([6]; A. baumannii strain 144): 0.63 µM | MIC ([6]; A. baumannii strain 147 (TGC^R)): 5 µM | MIC ([6]; A. baumannii strain 152 (TGC^R)): 1.25 µM | MIC ([6]; A. baumannii strain 1605 (ATCC)): 0.63 µM | MIC ([6]; A. baumannii strain 10087): 1.25 µM | MIC ([6]; A. baumannii strain 19606): 1.25 µM | MIC ([6]; A. baumannii strain 40203 (Korean Culture Center of Microorganisms)): 0.63 µM

The next lines start with the values.

solubility at 12 h ([1]; aqueous buffer): ≥ 100 µM | solubility at 12 h ([1]; plasma or biological fluid): 100 µM (≈ 134 µg/mL) | solubility at 12 h ([1]; water): > 2000 µM | MIC MRAB (A. baumannii) ATCC BAA 1605 [2]: 1.25 µM (≈ 1.68 µg/mL) | MIC MRSA (S. aureus) KCCM 40510 [3]: 1.25 µM (≈ 1.68 µg/mL) | MIC VRE (E. faecalis) ATCC 51575 [4]: 1.25 µM (≈ 1.68 µg/mL) | MIC MRPA (P. aeruginosa) CCARM 2180 [5]: 5 µM (≈ 6.71 µg/mL)
Molecule: CC(C)[C@@H](NC(=O)[C@H](N)Cc1c[nH]c2ccccc12)C(=O)N[C@@H](C(=O)N[C@H](Cc1c[nH]c2ccccc12)C(=O)N[C@H](Cc1c[nH]c2ccccc12)C(=O)N[C@@H](C(=O)N[C@H](CCCNC(=N)N)C(=O)N[C@H](CCCNC(=N)N)C(=O)N[C@H](CCCNC(=N)N)C(N)=O)C(C)C)C(C)C [KSH40, wvvwwvrrr] (H-[dW][dV][dV][dW][dW][dV][dR][dR][dR]-NH2; N-terminus assumed)

solubility at 12 h ([1]; aqueous buffer): > 200 µM | solubility at 12 h ([1]; plasma or biological fluid): 50 µM (≈ 69.6 µg/mL) | solubility at 12 h ([1]; water): > 2000 µM | MIC MRAB (A. baumannii) ATCC BAA 1605 [2]: 1.25 µM (≈ 1.74 µg/mL) | MIC MRSA (S. aureus) KCCM 40510 [3]: 1.25 µM (≈ 1.74 µg/mL) | MIC VRE (E. faecalis) ATCC 51575 [4]: 1.25 µM (≈ 1.74 µg/mL) | MIC MRPA (P. aeruginosa) CCARM 2180 [5]: 2.5 µM (≈ 3.48 µg/mL)
Molecule: CC(C)[C@@H](NC(=O)[C@H](N)Cc1c[nH]c2ccccc12)C(=O)N[C@@H](C(=O)N[C@H](Cc1c[nH]cn1)C(=O)N[C@@H](C(=O)N[C@@H](C(=O)N[C@H](Cc1c[nH]c2ccccc12)C(=O)N[C@H](CCCNC(=N)N)C(=O)N[C@H](CCCNC(=N)N)C(=O)N[C@H](CCCNC(=N)N)C(N)=O)C(C)C)C(C)C)C(C)C [KSH45, wvvhvvwrrr] (H-[dW][dV][dV][dH][dV][dV][dW][dR][dR][dR]-NH2; N-terminus assumed)
